pKi: −log10 of the molar value.
molecular target: T1, hCX3CR1 (Homo sapiens, UniProt P49238); experiment: in vitro hCX3CR1 binding assay ([125I]-fractalkine competition binding, membranes); details: competition with 10 pM [125I]-fractalkine, membranes of HEKS 293 cells expressing hCX3CR1, 25° C., 24 h
T1 construct: expressed in transfected cells; host or cells: HEKS 293 (human embryonic kidney suspension) cells stably expressing chimeric G-protein Gαqi5
T1 sequence (P49238 1-355): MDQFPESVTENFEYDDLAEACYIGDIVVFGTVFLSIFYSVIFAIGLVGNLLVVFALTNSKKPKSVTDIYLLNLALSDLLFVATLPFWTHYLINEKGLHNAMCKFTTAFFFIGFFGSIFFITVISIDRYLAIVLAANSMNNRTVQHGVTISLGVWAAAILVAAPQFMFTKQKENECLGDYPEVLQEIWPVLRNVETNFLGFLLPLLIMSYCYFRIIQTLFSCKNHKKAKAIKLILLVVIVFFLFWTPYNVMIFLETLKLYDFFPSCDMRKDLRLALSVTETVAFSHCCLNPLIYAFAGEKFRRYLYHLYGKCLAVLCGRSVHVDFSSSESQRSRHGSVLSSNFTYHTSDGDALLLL
Protocol: The complete human CX3CR1 cDNA (GenBank accession number U20350) was extracted from human brain mRNA (Superscript, Life Technologies) and ligated into pCR-Blunt II TOPO vector (InVitrogen). The insert corresponding hCX3CR1 was isolated and further subcloned into pcDNA3.1zeo. Plasmid DNA was prepared using Plasmid Midi Kit (Qiagen). Using Superfect Transfection Reagent (Qiagen) according to the manufacturer's protocol the expression plasmid for hCX3CR1 was then introduced into human embryonic kidney suspension (HEKS) 293 cell line containing a vector for stable expression of a chimeric G-protein Gαqi5. A stable clone was generated utilizing zeocin (500 μg/mL) and hygromycin (100 μg/mL) selection. For further applications the cells were maintained in Dulbecco's modified Eagle's medium/Ham's nutrient mix F12 (DMEM/F12) containing pyridoxine and supplemented with 10% (v/v) fetal bovine serum, 2 mM L-glutamine, 100 U/ml penicillin and […] streptomycin, 250 μg/mL zeocin and 100 μg/mL hygromycin.
Cells are grown at 37° C. and 5% CO2 and harvested at 60-80% confluence in buffer containing 10 mM Tris-HCl pH 7.4, 5 mM EDTA, 0.1 mg/mL bacitracin. The cells are centrifuged at 300×g for 10 min and the pellet is resuspended in harvesting buffer (10 mM Tris-HCl, pH 7.4, 5 mM ethylenediaminetetra-aceticacid (EDTA) and 0.1 mg/mL bacitracin), pooled and homogenised using a Dounce homogeniser. The homogenate is centrifuged in 48000×g for 10 min and resuspended in harvesting buffer using Ultra-Turrax T8. Membrane aliquots are stored at −80° C. Protein concentration was determined in microtiter plates as described by Harrington (1990, Anal. Biochem. 186, 285-287).
Competition binding studies of [^125I]fraktalkine were performed in 2 mL 96-deep-well plates (Beckman, Germany) in a total volume of 1000 μL/well. Each well contained 10 pM [^125I]-fractalkine and membrane equivalent to receptor concentration of 1 pM in assay buffer (50 mM Hepes-KOH, pH 7.4, 10 mM MgCl2, 1 mM EDTA, 0.1% (w/v) gelatine). Ten concentrations (2 points/log unit) of the test compounds were pre-dissolved in DMSO and added to reach a final concentration of 1% (v/v) DMSO. The assay was initiated with the addition of membranes and incubated at 25° C. for 24 h. The reactions were stopped by rapid filtration through Whatman GF/B glass fiber filters pretreated with 0.3% polyethylimine and subsequent washing with ice-cold buffer (10 mM Hepes-KOH pH 7.4, 500 mM NaCl) using a Brandel receptor binding harvester. Scintillation cocktail was added and radioactivity was determined in a Packard 2500TR liquid scintillation counter. (Perkin Elmer, USA)

Row | pKi | Structure (SMILES)
1 | 8.21 | CC(C)C[C@H](CO)Nc1nc(S[C@@H](C)c2ccc(Cl)cn2)nc2nc(N)sc12 [Example 2, (2R)-2-[(2-Amino-5-{[(1S)-1-(5-chloropyridin-2-yl)ethyl]thio}[1,3]thiazolo[4,5-d]pyrimidin-7-yl)amino]-4-methylpentan-1-ol]
2 | 7.68 | CC(C)C[C@H](CO)Nc1nc(SC(C)c2ccc(F)cn2)nc2nc(N)sc12 (mixture of isomers) [Example 1, (2R)-2-[(2-Amino-5-{[1-(5-fluoropyridin-2-yl)ethyl]thio}[1,3]thiazolo[4,5-d]pyrimidin-7-yl)amino]-4-methylpentan-1-ol]
3 | 7.64 | CC(C)C[C@H](CO)Nc1nc(S[C@@H](C)c2ncccc2F)nc2nc(N)sc12 [Example 5, (2R)-2-[(2-Amino-5-{[(1S)-1-(3-fluoropyridin-2-yl)ethyl]thio}[1,3]thiazolo[4,5-d]pyrimidin-7-yl)amino]-4-methylpentan-1-ol]
4 | 6.69 | CCC[C@H](CO)N(C)c1nc(S[C@@H](C)c2ccc(Cl)nc2)nc2nc(N)sc12 [Example 6, (2R)-2-[(2-amino-5-{[(1S)-1-(6-chloropyridin-3-yl)ethyl]thio}[1,3]thiazolo[4,5-d]pyrimidin-7-yl)(methyl)amino]pentan-1-ol]
5 | 6.83 | CCC[C@H](CO)Nc1nc(S[C@@H](C)c2ccc(Cl)nc2)nc2nc(N)sc12 [Example 7, (2R)-2-[(2-Amino-5-{[(1S)-1-(6-chloropyridin-3-yl)ethyl]thio}[1,3]thiazolo[4,5-d]pyrimidin-7-yl)amino]pentan-1-ol]
6 | 8.19 | CC(C)C[C@H](CO)Nc1nc(S[C@@H](C)c2ccc(F)cn2)nc2nc(N)sc12 (single isomer, unassigned) [Example 3]
7 | 7.09 | CC(C)C[C@H](CO)Nc1nc(S[C@@H](C)c2cc(C#N)ccn2)nc2nc(N)sc12 [Example 8, 2-{(1S)-1-[(2-Amino-7-{[(1R)-1-(hydroxymethyl)-3-methylbutyl]amino}[1,3]thiazolo[4,5-d]pyrimidin-5-yl)thio]ethyl}isonicotinonitrile]
8 | 7.46 | CC(C)C[C@H](CO)Nc1nc(S[C@@H](C)c2ccncc2Cl)nc2nc(N)sc12 [Example 9b, (2R)-2-[(2-amino-5-{[(1S)-1-(3-chloropyridin-4-yl)ethyl]thio}[1,3]thiazolo[4,5-d]pyrimidin-7-yl)amino]-4-methylpentan-1-ol]

— patent publication US8158785B2, “5,7-disubstituted[1.3]thiazolo [4,5-D] pyrimidin-2(3H)-amine derivatives and their use in therapy” (AstraZeneca AB, priority 2006, dated 2012)
